# Experimental data: patent US11040041B2, “Method of treating pulmonary arterial hypertension” (Cipla (UK) Limited, priority 2015, dated 2021)
# Legend:
# [1] = system: rats with monocrotaline induced pulmonary arterial hypertension; assay: Hemodynamic evaluation in anesthetized rats treated with monocrotaline to induce pulmonary arterial hypertension; format: in vivo, Sprague-Dawley rats; details: 3.25 mg/kg dosing (so in the source), after 28 days
# [2] = system: rats with monocrotaline induced pulmonary arterial hypertension; assay: as above; format: in vivo, Sprague-Dawley rats; details: for RV/LV + S: Fulton's Index; for RV/LV + S / Body Weight / HR / HW/BW / Heart Wt / LV Wt / Lung Wt / MAP / Mean PAP / RV Wt / RV/BW / Systolic PAP: day 28 after monocrotaline, mean ± SEM
# Procedure: The studies were conducted for Hemodynamic Evaluation of Paliperidone palmitate in Anesthetized Sprague Dawley Rats Treated with Monocrotaline to Induce Pulmonary Arterial Hypertension. Sildenafil was used as an internal control to compare the effects of Paliperidone palmitate.
# Adult male Sprague-Dawley rats (287±4 g) were obtained from Charles River Laboratories (Raleigh, N.C.). Animals housed individually in a temperature/humidity controlled room with 12-hour light/dark cycles, had free access to water and food and were acclimated for one week prior to the study. Rats were randomly assigned (n=10 per group). Rats in groups 1 and 2 served as healthy controls; the remaining rats were injected subcutaneously on Day 0 with 60 mg/kg body weight monocrotaline, the toxic alkaloid of Crotalaria spectabilis, (dissolved in DMSO at a concentration of 60 mg/ml, Sigma Aldrich, St. Louis, Mo.). On days 1-21, the rats were dosed via oral gavage (2 ml/kg) with vehicle (PBS), or the test compound—Paliperidone palmitate. Rats were weighed daily, and the dosages of test compound adjusted appropriately.
# Monocrotaline (MCT) is an 11-membered macrocyclic pyrrolizidine plant alkaloid. A single SQ injection into rats results in hepatic generation of toxic metabolite—MCT pyrrole. Phase II metabolism of MCT is through glutathione conjugation. Reactive metabolite is transported to lungs, injuring pulmonary vasculature.
# The effects of sildenafil and Paliperidone palmitate were evaluated in rats with monocrotaline induced pulmonary arterial hypertension. Male Sprague-Dawley rats were orally administered vehicle, Paliperidone palmitate (1.25 or 3.75 mg/kg, once every day for 28 days starting on Day 1, or sildenafil (30 mg/kg, administered twice daily) (n=10 in each group). Rats received a single injection of monocrotaline (60 mg/kg, s.c.) on Study Day 1. On the twenty-eighth day following monocrotaline dosing, the rats were anesthetized with ketamine/xylazine for terminal monitoring of pulmonary and systemic arterial pressures along with heart rate.
# The Table 1 gives the study design for the test article and vehicle administrations.
# [3] = Paliperidone palmitate 1.25 mg/kg oral once daily
# [4] = Paliperidone palmitate 3.75 mg/kg oral once daily
# [5] = after 28 days, monocrotaline rats
# [6] = Sildenafil 60 mg/kg/day bid oral
smiles,measurement,setting,value
"CCCCCCCCCCCCCCCC(=O)OC1CCCn2c1nc(C)c(CCN1CCC(c3noc4cc(F)ccc34)CC1)c2=O (stereo not shown) [Paliperidone palmitate, Hexadecanoic acid 3-[2-[4-(6-fluoro-1,2-benzisoxazol-3-yl)piperidin-1-yl]ethyl]-2-methyl-4-oxo-6,7,8,9-tetrahydro-4H-pyri do[1,2-a]pyrimidin-9-yl ester]",reduction in systolic pulmonary arterial pressure compared to the vehicle group,[1],20%
same,reduction in systolic pulmonary arterial pressure compared to the vehicle group,"[2]; 1.25 mg/kg dosing, after 28 days, monocrotaline rats",25%
same,"right ventricular hypertrophy (RV/LV+S, Fulton's Index) change compared to vehicle","[2]; 1.25 mg/kg, after 28 days, monocrotaline rats",−12%
same,"right ventricular hypertrophy (RV/LV+S, Fulton's Index) change compared to vehicle","[2]; 3.75 mg/kg, after 28 days, monocrotaline rats",−7%
same,RV/LV + S,[2]; [3],0.52 ± 0.04
same,RV/LV + S,[2]; [4],0.55 ± 0.06
same,Body Weight,[2]; [3],0.33 ± 0.02 kg
same,HR,[2]; [3],253 ± 36 bpm
same,HW/BW,[2]; [3],3.94 ± 0.22
same,Heart Wt,[2]; [3],1.28 ± 0.03 g
same,LV Wt,[2]; [3],0.77 ± 0.01 g
same,Lung Wt,[2]; [3],2.59 ± 0.13 g
same,MAP,[2]; [3],54 ± 9 mm Hg
same,Mean PAP,[2]; [3],34 ± 1 mm Hg
same,RV Wt,[2]; [3],0.39 ± 0.02 g
same,RV/BW,[2]; [3],1.22 ± 0.10
same,Systolic PAP,[2]; [3],45 ± 3 mm Hg
same,Body Weight,[2]; [4],0.33 ± 0.02 kg
same,HR,[2]; [4],312 ± 12 bpm
same,HW/BW,[2]; [4],3.92 ± 0.21
same,Heart Wt,[2]; [4],1.28 ± 0.06 g
same,LV Wt,[2]; [4],0.73 ± 0.03 g
same,Lung Wt,[2]; [4],2.23 ± 0.04 g
same,MAP,[2]; [4],68 ± 5 mm Hg
same,Mean PAP,[2]; [4],39 ± 3 mm Hg
same,RV Wt,[2]; [4],0.40 ± 0.03 g
same,RV/BW,[2]; [4],1.22 ± 0.12
same,Systolic PAP,[2]; [4],48 ± 3 mm Hg
same,differences in heart rate compared to vehicle,[2]; [5],No substantive differences
same,differences in mean arterial pressure compared to vehicle,[2]; [5],No substantive differences
same,"decrease in hypertrophy, RV (wt) corrected by body weight","[2]; at either dose (1.25 or 3.75 mg/kg), after 28 days, monocrotaline rats",19%
same,development of PAH in the rat monocrotaline (MCT) model,"[2]; daily oral doses, text says three weeks",prevent the development of PAH
CCCc1nn(C)c2c(=O)[nH]c(-c3cc(S(=O)(=O)N4CCN(C)CC4)ccc3OCC)nc12 [Sildenafil],RV/LV + S,[2]; [6],0.51 ± 0.03
same,Body Weight,[2]; [6],0.32 ± 0.01 kg
same,HR,[2]; [6],278 ± 21 bpm
same,HW/BW,[2]; [6],3.89 ± 0.17
same,Heart Wt,[2]; [6],1.24 ± 0.02 g
same,LV Wt,[2]; [6],0.74 ± 0.02 g
same,Lung Wt,[2]; [6],2.36 ± 0.13 g
same,MAP,[2]; [6],69 ± 5 mm Hg
same,Mean PAP,[2]; [6],38 ± 6 mm Hg
same,RV Wt,[2]; [6],0.38 ± 0.02 g
same,RV/BW,[2]; [6],1.19 ± 0.09
same,Systolic PAP,[2]; [6],46 ± 7 mm Hg
same,differences in heart rate compared to vehicle,[2]; [5],No substantive differences
same,differences in mean arterial pressure compared to vehicle,[2]; [5],No substantive differences
same,"decrease in hypertrophy, RV (wt) corrected by body weight","[2]; sildenafil (30 mg/kg twice daily), after 28 days, monocrotaline rats",21%
same,"right ventricular hypertrophy (RV/LV+S, Fulton's Index) change compared to vehicle","[2]; sildenafil cohort (30 mg/kg twice daily), after 28 days, monocrotaline rats",−14%
same,reduction of SPAP compared to the vehicle group,"[2]; sildenafil group (30 mg/kg twice daily), after 28 days, monocrotaline rats",23%
